Data as given in patent US7858125B2, “Multi-component biocide composition for wood protection” (priority 2006, dated 2010).
Where two headings read alike, the source gives them in different places.

Experiments:
A. niger = experiment: Mold resistance of treated wood stakes (ASTM D4445-91), A. niger; assay type: cell-based, Aspergillus niger 2.242
Protocol: (§1) The biocide compositions were first tested for the efficacy in preventing mold fungal growth. […] The mold fungi were first prepared by growing the various mold fungi species on 2% malt agar. […] Spore suspensions were transferred to a spray bottle and diluted to 100 milliliters with DI water. The spray bottle was adjusted to deliver 1 milliliter inoculum/spray.
(§2) The biocide compositions were tested for the efficacy in preventing mold fungal growth and compared to the abilities of the commercially used preservatives, fungicides, extracts, and pharmaceuticals in preventing mold fungal growth.
(§3) Specimens (7×20 millimeters cross section by 7 centimeters long) were cut from unseasoned southern yellow pine mill ends from a Mississippi sawmill and stored at 0° C. […] Southern yellow pine oriented strand board (OSB) specimens (11×20 millimeters cross section by 7 centimeters long) were cut from a full sheet of OSB and conditioned to 70% relative humidity. […] Untreated stakes were dipped in DI water and served as Control A for water-based test chemicals. […]
(§4) The biocide compositions were first tested for the efficacy in preventing mold fungal growth. […]

T. viride = experiment: Mold resistance of treated wood stakes (ASTM D4445-91), T. viride; assay type: cell-based, Trichoderma viride ATCC 20476
Protocol: as §1, §2, §3, §4

P. chrysogenum = experiment: Mold resistance of treated wood stakes (ASTM D4445-91), P. chrysogenum; assay type: cell-based, Penicillium chrysogenum PH02
Protocol: as §1, §2, §3, §4

[1] = Example 2, dip-treated unseasoned southern yellow pine, 4 weeks, scale 0-5 (5 = 100% coverage)

Compound | Mold Resistance Average Rating, A. niger (A. niger; [1]) | Mold Resistance Average Rating, T. viride (T. viride; [1]) | Mold Resistance Average Rating, P. chrysogenum (P. chrysogenum; [1]) | Mold Resistance Average Rating, A. niger (A. niger) | Mold Resistance Average Rating, T. viride (T. viride) | Mold Resistance Average Rating, P. chrysogenum (P. chrysogenum)
C[C@@H](c1ncncc1F)[C@](O)(Cn1cncn1)c1ccc(F)cc1F [Sample 44, Voriconazole] | 0.0 | 0.1 | 0.0 |  |  | 
O=C[O-].[Na+] [Sample 26, Sodium formate] | 5.0 | 4.1 | 4.7 |  |  | 
O=C([O-])c1ccccc1.[Na+] [Sample 14, Sodium benzoate] | 1.7 | 1.0 | 0.0 |  |  | 
O=C[O-].[Na+] [Sample 25, Sodium formate] | 5.0 | 4.3 | 4.6 |  |  | 
C/C=C/C=C/C(=O)[O-].[K+] [Sample 24, Potassium sorbate] |  |  |  | 0.0 | 0.0 | 1.7
CCC(=O)[O-].CCC(=O)[O-].[Ca+2] [Sample 18, Calcium propionate] | 5.0 | 4.7 | 5.0 |  |  | 
Thujaplicin (isopropyltropolone) [Sample 29] | 5.0 | 1.0 | 0.0 |  |  | 
OC(Cn1cncn1)(Cn1cncn1)c1ccc(F)cc1F [Sample 39, Difluconazole] | 5.0 | 5.0 | 4.7 |  |  | 
C[C@@H](c1ncncc1F)[C@](O)(Cn1cncn1)c1ccc(F)cc1F [Sample 42, Voriconazole] | 0.0 | 1.3 | 0.0 |  |  | 
O=C([O-])c1ccccc1.[Na+] [Sample 16, Sodium benzoate] | 0.0 | 0.7 | 0.0 |  |  | 
c1ccc2[nH]c(-c3cscn3)nc2c1 [Sample 46, Thiabendazole] | 0.0 | 0.0 | 0.0 |  |  | 
C[C@@H](c1ncncc1F)[C@](O)(Cn1cncn1)c1ccc(F)cc1F [Sample 41, Voriconazole] | 0.0 | 2.4 | 0.0 |  |  | 
C/C=C/C=C/C(=O)[O-].[K+] [Sample 20, Potassium sorbate] |  |  |  | 5.0 | 4.9 | 5.0
CCC(=O)[O-].CCC(=O)[O-].[Ca+2] [Sample 17, Calcium propionate] | 5.0 | 4.6 | 4.9 |  |  | 
C[C@@H](c1ncncc1F)[C@](O)(Cn1cncn1)c1ccc(F)cc1F [Sample 43, Voriconazole] | 0.1 | 0.4 | 0.0 |  |  | 
C/C=C/C=C/C(=O)[O-].[K+] [Sample 21, Potassium sorbate] |  |  |  | 2.6 | 2.9 | 2.6
O=C[O-].[Na+] [Sample 27, Sodium formate] | 4.7 | 4.0 | 3.3 |  |  | 
Clc1ccccc1C(c1ccccc1)(c1ccccc1)n1ccnc1 [Sample 40, Clotrimazole] | 5.0 | 3.7 | 3.4 |  |  | 
Clc1ccc(COC(Cn2ccnc2)c2ccc(Cl)cc2Cl)c(Cl)c1 (stereo not drawn) [Sample 34, Miconazole] | 0.0 | 0.0 | 0.0 |  |  | 
O=C([O-])c1ccccc1.[Na+] [Sample 15, Sodium benzoate] | 0.4 | 0.4 | 0.0 |  |  | 
C/C=C/C=C/C(=O)[O-].[K+] [Sample 22, Potassium sorbate] |  |  |  | 0.0 | 0.7 | 0.0
CC(C)c1cccc(O)c(=O)c1 [Sample 30, Thujaplicin (isopropyltropolone)] | 0.0 | 0.0 | 0.0 |  |  | 
O=NO [Sample 28, Sodium nitrite] | 5.0 | 5.0 | 4.9 |  |  | 
c1ccc2[nH]c(-c3cscn3)nc2c1 [Sample 47, Thiabendazole] | 0.0 | 0.0 | 0.0 |  |  | 
O=C([O-])c1ccccc1.[Na+] [Sample 13, Sodium benzoate] | 2.9 | 3.1 | 2.4 |  |  | 
CCC(=O)[O-].CCC(=O)[O-].[Ca+2] [Sample 19, Calcium propionate] | 0.9 | 3.3 | 2.0 |  |  | 
c1ccc2[nH]c(-c3cscn3)nc2c1 [Sample 45, Thiabendazole] | 0.0 | 2.5 | 0.0 |  |  | 
C/C=C/C=C/C(=O)[O-].[K+] [Sample 23, Potassium sorbate] |  |  |  | 0.0 | 1.0 | 0.0
